What was measured:
M1 muscarinic receptor = target: T1, M1 muscarinic receptor (Homo sapiens, UniProt P11229); assay: Functional mobilization of intracellular calcium (FLIPR, Fluo-3), M1-CHO cells; type: cell-based; details: compound nos. 1-454; for Emax: 100% efficacy is the maximum response obtained with the Carbachol control, read-out: M1 Efficacy; for M1 Activity: M1-CHO cells, calcium mobilization
T1 construct: expressed in transfected cells; host or cells: CHO cells (M1-CHO, under zeocin and G418 selection)
T1 sequence (P11229 1-460): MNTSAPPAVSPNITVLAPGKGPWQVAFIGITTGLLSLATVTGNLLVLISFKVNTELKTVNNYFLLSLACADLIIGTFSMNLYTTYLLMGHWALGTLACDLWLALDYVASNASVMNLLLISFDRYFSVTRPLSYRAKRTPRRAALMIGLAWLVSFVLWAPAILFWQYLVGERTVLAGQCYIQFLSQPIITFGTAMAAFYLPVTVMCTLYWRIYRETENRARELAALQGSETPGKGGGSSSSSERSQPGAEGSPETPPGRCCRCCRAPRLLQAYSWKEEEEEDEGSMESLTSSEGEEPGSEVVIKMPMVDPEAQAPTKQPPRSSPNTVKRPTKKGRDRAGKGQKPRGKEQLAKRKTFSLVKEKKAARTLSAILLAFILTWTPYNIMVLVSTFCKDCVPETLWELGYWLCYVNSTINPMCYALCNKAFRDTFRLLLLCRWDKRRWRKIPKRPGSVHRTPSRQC
Procedure, shortened: (§1)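 Fluo-3 read-out, ex 488/em 540 nm, 60 sec on FLIPR 3. For agonist mode, compound added directly; for inhibition, 15 min compound pre-incubation before carbachol at EC80 (added as a 3× solution), or co-application. Buffer pH 7.4 with 1 mM probenecid; DMSO 0.5%.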

M4 muscarinic receptor = target: T2, M4 muscarinic receptor (Homo sapiens, UniProt P08173); assay: Functional mobilization of intracellular calcium (FLIPR, Fluo-3), M4-CHO cells; type: cell-based; details: compound nos. 1-454; for Emax: 100% efficacy is the maximum response obtained with the Carbachol control, read-out: M4 Efficacy; for M4 Activity: M4-CHO cells, calcium mobilization
T2 construct: expressed in transfected cells; host or cells: CHO cells (M4-CHO, under puromycin, zeocin and blasticidin selection)
T2 sequence (P08173 1-479): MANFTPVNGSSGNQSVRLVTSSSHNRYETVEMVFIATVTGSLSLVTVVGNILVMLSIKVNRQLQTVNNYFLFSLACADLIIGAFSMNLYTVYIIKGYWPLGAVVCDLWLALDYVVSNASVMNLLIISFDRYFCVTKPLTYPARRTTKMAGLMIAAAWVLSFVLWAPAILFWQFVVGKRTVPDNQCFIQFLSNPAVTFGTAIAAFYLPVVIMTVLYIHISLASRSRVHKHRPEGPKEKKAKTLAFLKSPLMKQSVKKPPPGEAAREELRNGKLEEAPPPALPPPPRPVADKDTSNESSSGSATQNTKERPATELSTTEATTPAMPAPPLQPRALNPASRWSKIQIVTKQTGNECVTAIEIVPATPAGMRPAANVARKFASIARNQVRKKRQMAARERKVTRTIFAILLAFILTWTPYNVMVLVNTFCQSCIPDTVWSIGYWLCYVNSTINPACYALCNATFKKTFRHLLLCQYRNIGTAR
Procedure, shortened: as §1

Structure (SMILES) | Emax (M1 muscarinic receptor) | M1 Activity (M1 muscarinic receptor) | Emax (M4 muscarinic receptor) | M4 Activity (M4 muscarinic receptor)
C#CCCOC(=O)N1CCC(N2CCC3(CC2)CN(C(=O)N(C)C)c2ccc(F)cc23)CC1 [compound 127] | 65 to 85% | +++ (activity was measured to be less than or equal to 0.7 μM) | < 55% | ++ (activity was measured to be between 0.1 μM and 4.0 μM)
CCOC(=O)N1CCC(N2CCC3(CC2)CN(C(C)=O)c2ccc(-c4ccoc4)cc23)CC1 [compound 128] | < 65% | +++ (activity was measured to be less than or equal to 0.7 μM) | < 55% | ++ (activity was measured to be between 0.1 μM and 4.0 μM)
COC(=O)N1CCC(CN2CCC3(CC2)CN(C(C)=O)c2ccc(F)cc23)CC1 [compound 129] | 65 to 85% | +++ (activity was measured to be less than or equal to 0.7 μM) | < 55% | + (activity was measured to be greater than or equal to 4.0 μM)
CN(C)C(=O)N1CC2(CCN(C3CC4CCC(C3)N4C(=O)O[C@H]3CCOC3)CC2)c2cc(F)ccc21 (stereo partly drawn) [compound 130] | < 65% | +++ (activity was measured to be less than or equal to 0.7 μM) | < 55% | ++ (activity was measured to be between 0.1 μM and 4.0 μM)
CCCC1CCC(N2CCC3(CC2)CN(C(C)=O)c2ccc(F)cc23)CC1 (stereo not drawn) [compound 131] | 65 to 85% | +++ (activity was measured to be less than or equal to 0.7 μM) | > 70% | ++ (activity was measured to be between 0.1 μM and 4.0 μM)
COC(=O)N1CCCC(N2CCC3(CC2)CN(C(C)=O)c2ccc(F)cc23)CC1 (stereo not drawn) [compound 132] | > 85% | +++ (activity was measured to be less than or equal to 0.7 μM) | > 70% | +++ (activity was measured to be less than or equal to 0.1 μM)
O=C(OC1CCCC1)N1C2CCC1CC(N1CCC3(CC1)COc1ccc(F)cc13)C2 (stereo not drawn) [compound 133] | > 85% | +++ (activity was measured to be less than or equal to 0.7 μM) | 55 to 70% | ++ (activity was measured to be between 0.1 μM and 4.0 μM)
O=C(C1CCC1)N1C2CCC1CC(N1CCC3(CC1)COc1ccc(F)cc13)C2 (stereo not drawn) [compound 134] | > 85% | +++ (activity was measured to be less than or equal to 0.7 μM) | < 55% | ++ (activity was measured to be between 0.1 μM and 4.0 μM)
CC(=O)N1CC2(CCN(CC3CCOC3)CC2)c2cc(F)ccc21 (stereo not drawn) [compound 135] | > 85% | +++ (activity was measured to be less than or equal to 0.7 μM) | > 70% | ++ (activity was measured to be between 0.1 μM and 4.0 μM)
CCOC(=O)N1CCC(N2CCC3(CC2)CN(C(=O)C2CC2)c2ccc(F)cc23)CC1 [compound 136] | > 85% | +++ (activity was measured to be less than or equal to 0.7 μM) | > 70% | +++ (activity was measured to be less than or equal to 0.1 μM)
CCOC(=O)N1CCC(N2CCC3(CC2)CN(C(C)=O)c2ccc(CC)cc23)CC1 [compound 137] | > 85% | +++ (activity was measured to be less than or equal to 0.7 μM) | > 70% | + (activity was measured to be greater than or equal to 4.0 μM)
CC(=O)N1CC2(CCN(C3CC4CCC3C4)CC2)c2cc(C)ccc21 (stereo not drawn) [compound 138] | 65 to 85% | +++ (activity was measured to be less than or equal to 0.7 μM) | 55 to 70% | + (activity was measured to be greater than or equal to 4.0 μM)
CC(C)OC(=O)N1C2CCC1CC(N1CCC3(CC1)C(=O)Nc1ccccc13)C2 (stereo not drawn) [compound 139] | > 85% | +++ (activity was measured to be less than or equal to 0.7 μM) | > 70% | +++ (activity was measured to be less than or equal to 0.1 μM)
CC(=O)N1CC2(CCN(C3CCN(C(=O)OC4CCC4)CC3)CC2)c2cc(F)ccc21 [compound 140] | > 85% | +++ (activity was measured to be less than or equal to 0.7 μM) | > 70% | +++ (activity was measured to be less than or equal to 0.1 μM)
CCOC(=O)N1CCC(N2CCC3(CC2)CN(C(C)=O)c2ccc(Cl)cc23)CC1 [compound 141] | > 85% | +++ (activity was measured to be less than or equal to 0.7 μM) | > 70% | ++ (activity was measured to be between 0.1 μM and 4.0 μM)
CCOC(=O)N1CCC(N2CCC3(CC2)CN(C(=O)C(C)C)c2ccc(F)cc23)CC1 [compound 142] | 65 to 85% | +++ (activity was measured to be less than or equal to 0.7 μM) | > 70% | + (activity was measured to be greater than or equal to 4.0 μM)
CC(=O)N[C@H]1CC2(CCN(C3CCCCCC3)CC2)c2ccccc21 [compound 143] | 65 to 85% | +++ (activity was measured to be less than or equal to 0.7 μM) | > 70% | +++ (activity was measured to be less than or equal to 0.1 μM)
CCOC(=O)N1CCC(N2CCC3(CC2)CN(C(=O)c2cccnc2)c2ccc(F)cc23)CC1 [compound 144] | > 85% | +++ (activity was measured to be less than or equal to 0.7 μM) | > 70% | +++ (activity was measured to be less than or equal to 0.1 μM)
CCOC(=O)N1CCC(N2CCC3(CC2)CN(C(=O)OC(C)C)c2ccc(F)cc23)CC1 [compound 145] | > 85% | +++ (activity was measured to be less than or equal to 0.7 μM) | > 70% | + (activity was measured to be greater than or equal to 4.0 μM)
CCOC(=O)N1CCC(N2CCC3(CC2)CN(C(C)=O)c2ccc(-c4ccccc4F)cc23)CC1 [compound 146] | > 85% | +++ (activity was measured to be less than or equal to 0.7 μM) | > 70% | +++ (activity was measured to be less than or equal to 0.1 μM)
CCOC(=O)N1C2CCC1CC(N1CCC3(CC1)C(=O)N(C)c1ccccc13)C2 (stereo not drawn) [compound 149] | > 85% | +++ (activity was measured to be less than or equal to 0.7 μM) | > 70% | + (activity was measured to be greater than or equal to 4.0 μM)
CCOC(=O)N1CCC(N2CCC3(CC2)CN(C(C)=O)c2ccc(-c4ccccc4OC)cc23)CC1 [compound 150] | 65 to 85% | +++ (activity was measured to be less than or equal to 0.7 μM) | > 70% | + (activity was measured to be greater than or equal to 4.0 μM)
CC(=O)N1CC2(CCN(C3CCN(C(=O)OC4CCC4)CC3)CC2)c2cc(C)ccc21 [compound 151] | > 85% | +++ (activity was measured to be less than or equal to 0.7 μM) | > 70% | +++ (activity was measured to be less than or equal to 0.1 μM)
Fc1ccc2c(c1)C1(CCN(C3CCCCC3)CC1)CO2 [compound 152] | 65 to 85% | ++ (activity was measured to be between 0.7 μM and 3.0 μM) | > 70% | + (activity was measured to be greater than or equal to 4.0 μM)

— patent publication US7858635B2 (priority 2005, dated 2010)
